Patent publication US10543202B2 (University of Saskatchewan, priority 2017, dated 2020)
“Also recorded” adds a separate entry of the source.

Experiments:
Format in all cases: physicochemical
[1] = Thin film of cream exposed to UVA light (photostability); conditions: for effect of photostabilizer in nifedipine emulsion on stability of nifedipine to UVA light: photostabilizer incorporated at varying concentrations up to 3% w/w in nifedipine 2% w/w cream
Text: (§1) Light Exposure: A UVA lamp was mounted 8.5 inches above a lab bench surface and the flux set to 740-750 μW/cm^2. This level of flux is roughly equivalent to a bright sunny day in mid-summer. […] The lamp apparatus was placed inside an enclosure with an access door, to prevent ambient light entering and for worker safety. For samples exposed to “ambient light”, these were placed on a laboratory bench where standard fluorescent lighting was used. […] To prevent drying, the samples were covered with Saran Wrap®, a plastic film that was determined to be UVA-transparent. After the allotted exposure time the cream was scraped off the slide for extraction with methanol. Samples which were exposed while in solution and not incorporated in a cream were dissolved in methanol as a 20 mL solution in a 100 mL beaker.
The sample was warmed in a water bath to 85° C. to melt lipids, followed by addition of 5 mL of methanol and vortex mixing. The samples were centrifuged at 14,000×g for 5 minutes and the supernatant retained for analysis.
Values reported represent mean±SD for triplicate measurements.

[2] = Mass spectrometry analysis of nifedipine and its photodegradants in UVA-exposed creams
Text: as §1

[3] = Emulsion phase stability analysis (LUMiSizer photocentrifuge, instability index); conditions: photocentrifuge 42° C., 12 hrs, versus emulsion without photostabilizers
Description: This allows for an approximation of the relative stability to phase separation of emulsions that differ in the type or percentage of photoprotectant and for confirming batch-to-batch consistency in stability against phase separation.^35 For each sample type, triplicate samples of 2 mL were loaded into photocentrifuge acrylic cuvettes. The samples were centrifuged at 42° C.×12 hrs. Phase separation was detected as an increase in light transmission at the top of the sample, which is interpreted as an “instability index” reflecting the rate of change of light transmission.

Row | Structure (SMILES) | effect of photostabilizer in nifedipine emulsion on stability of nifedipine to UVA light [1] | alternative nifedipine degradation pathways in presence of photostabilizer [2] | effect of photostabilizer on instability index / phase stability of nifedipine emulsion [3] | effect of quercetin on photostability of nifedipine cream after UVA exposure ([1]; quercetin 0.5% w/w alone in nifedipine cream) | difference in nifedipine concentration between preparations with and without rutin ([1]; 2 h UVA exposure) | effectiveness as photoprotectant for nifedipine in O/W emulsion ([1]; concentrations up to 2% (w/w)) | reduction of UVA-induced degradation of nifedipine ([1]; rutin 0.5-3% (w/w), 20 mg thin film, over 3 hrs)
1 | COc1ccc(C(=O)CC(=O)c2ccc(C(C)(C)C)cc2)cc1 [BMDBM, 1-(4-methoxyphenyl)-3-[4-(2-methyl-2-propanyl)phenyl]-1,3-propanedione] | moderately effective | no alternative degradation pathways identified | reduced the instability; also recorded: increased the stability of the nifedipine emulsion |  |  |  | 
2 | O=c1c(O)c(-c2ccc(O)c(O)c2)oc2cc(O)cc(O)c12 [quercetin, 2-(3,4-dihydroxyphenyl)-3,5,7-trihydroxy-4H-chromen-4-one] | increased the stability of nifedipine to UVA light | no alternative degradation pathways identified | reduced the instability; also recorded: increased the stability of the nifedipine emulsion | moderately effective; also recorded: photostability was improved |  |  | 
3 | C[C@@H]1O[C@@H](OC[C@H]2O[C@@H](Oc3c(-c4ccc(O)c(O)c4)oc4cc(O)cc(O)c4c3=O)[C@H](O)[C@@H](O)[C@@H]2O)[C@H](O)[C@H](O)[C@H]1O [rutin, 2-(3,4-dihydroxyphenyl)-5,7-dihydroxy-4-oxo-4H-chromen-3-yl 6-O-(6-deoxy-α-L-mannopyranosyl)-β-D-glucopyranoside] | not protected from photodegradation; also recorded: not effective | no alternative degradation pathways identified |  |  | No significant difference | ineffective | did not significantly reduce UVA-induced degradation of nifedipine
